The values that follow are results of earlier work, collected in patent US10815228B2, “Aztreonam derivatives and uses thereof” (ARIXA PHARMACEUTICALS, INC., priority 2017, dated 2020).

Take `C[C@H]1[C@H](NC(=O)/C(=N/OC(C)(C)C(=O)O)c2csc(N)n2)C(=O)N1S(=O)(=O)O` [aztreonam, (2-((((E)-1-(2-aminothiazol-4-yl)-2-(((2S,3S)-2-methyl-4-oxo-1-sulfoazetidin-3-yl)amino)-2-oxoethylidene)amino)oxy)-2-methylpropanoic acid)]: under “aztreonam, statement in words”, the oral bioavailability entry is “poor oral bioavailability”. Also, the “oral bioavailability of aztreonam” value (orally administered aztreonam) was “less than 1%”.
